Reference: ChEMBL document CHEMBL5137081, “N-Heterocyclic 3-Pyridyl Carboxamide Inhibitors of DHODH for the Treatment of Acute Myelogenous Leukemia” (J Med Chem, 2022)
Converted amounts (≈) assume the structure as drawn.

How the values were obtained:
[1] = Inhibition of dog DHODH; set-up: species or system Canis lupus familiaris
[2] = AUC(0 to infinity) in Sprague-Dawley rat at 10 mg/kg, po or 2 mg/kg, iv measured upto 24 hrs by LC-MS/MS analysis; format: ADME, organism-based; set-up: dose 10 mg/kg, time < 24 hrs, route po; details: in vivo
[3] = Lipophilicity, logD of compound at pH 7.4; format: physicochemical; details: buffer
[4] = Plasma protein binding in mouse assessed as free fraction at 1 uM by equilibrium dialysis based LC-MS/MS analysis; format: ADME, cell-free
Cytochrome P450 2C8 = target: T1, Cytochrome P450 2C8 (Homo sapiens, UniProt P10632); assay: Inhibition of CYP2C8 in human liver microsomes incubated for 10 mins by LC-MS/MS analysis; format: ADME, Microsome
T1 sequence (P10632 whole entry): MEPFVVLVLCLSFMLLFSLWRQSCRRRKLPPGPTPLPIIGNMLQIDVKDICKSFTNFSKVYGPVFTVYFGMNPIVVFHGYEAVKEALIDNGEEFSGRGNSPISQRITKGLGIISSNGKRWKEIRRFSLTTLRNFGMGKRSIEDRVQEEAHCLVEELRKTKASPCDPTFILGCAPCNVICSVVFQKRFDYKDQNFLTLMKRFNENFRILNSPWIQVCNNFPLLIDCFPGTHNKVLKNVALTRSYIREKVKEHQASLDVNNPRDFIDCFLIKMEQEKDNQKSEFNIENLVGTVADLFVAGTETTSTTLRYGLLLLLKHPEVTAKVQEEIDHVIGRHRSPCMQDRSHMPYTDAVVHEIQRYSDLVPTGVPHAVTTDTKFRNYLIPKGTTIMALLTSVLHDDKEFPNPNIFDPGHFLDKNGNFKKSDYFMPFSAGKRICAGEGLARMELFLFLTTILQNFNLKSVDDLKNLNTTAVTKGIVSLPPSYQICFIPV

[5] = Plasma protein binding in dog assessed as free fraction at 1 uM by equilibrium dialysis based LC-MS/MS analysis; format: ADME, cell-free, Canis lupus familiaris
[6] = Inhibition of monkey DHODH; set-up: species or system Macaca mulatta
[7] = Metabolic stability in monkey liver microsome assessed as intrinsic clearance pretreated for 5 mins followed by NADPH addition and measured upto 60 mins by HPLC-MS/MS analysis; format: ADME, Macaca mulatta; details: rhesus monkey, liver microsomes; time < 65 min; read-out: CLH
Cytochrome P450 2C9 = Cytochrome P450 2C9 (Homo sapiens, UniProt P11712); assay: Inhibition of CYP2C9 in human liver microsomes incubated for 10 mins by LC-MS/MS analysis; format: ADME, Microsome
Cytochrome P450 2C9, sequence (P11712 whole entry): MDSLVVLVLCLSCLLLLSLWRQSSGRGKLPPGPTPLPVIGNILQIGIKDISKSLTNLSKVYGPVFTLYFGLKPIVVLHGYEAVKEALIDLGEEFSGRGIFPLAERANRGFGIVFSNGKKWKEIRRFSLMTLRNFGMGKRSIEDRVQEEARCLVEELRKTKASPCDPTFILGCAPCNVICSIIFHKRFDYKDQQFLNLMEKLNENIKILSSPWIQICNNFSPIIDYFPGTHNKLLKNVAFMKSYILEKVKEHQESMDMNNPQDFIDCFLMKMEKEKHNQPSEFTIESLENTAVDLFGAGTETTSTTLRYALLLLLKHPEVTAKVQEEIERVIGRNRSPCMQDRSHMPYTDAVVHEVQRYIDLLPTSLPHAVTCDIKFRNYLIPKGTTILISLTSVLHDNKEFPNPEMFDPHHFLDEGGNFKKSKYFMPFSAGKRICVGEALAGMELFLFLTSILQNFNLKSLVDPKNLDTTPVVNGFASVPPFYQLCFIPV

[8] = Half life in C57BL/6 mouse at 10 mg/kg, po or 2 mg/kg, iv measured upto 24 hrs by LC-MS/MS analysis; format: ADME, organism-based; details: in vivo
[9] = Oral bioavailability in C57BL/6 mouse at 10 mg/kg measured upto 24 hrs by LC-MS/MS analysis; format: ADME, organism-based; details: in vivo
[10] = target: Voltage-gated inwardly rectifying potassium channel KCNH2 (Homo sapiens, UniProt Q12809); assay: Inhibition of hERG expressed in HEK293 cells by radioligand binding assay; format: toxicity, cell-based
Voltage-gated inwardly rectifying potassium channel KCNH2, sequence (Q12809 whole entry): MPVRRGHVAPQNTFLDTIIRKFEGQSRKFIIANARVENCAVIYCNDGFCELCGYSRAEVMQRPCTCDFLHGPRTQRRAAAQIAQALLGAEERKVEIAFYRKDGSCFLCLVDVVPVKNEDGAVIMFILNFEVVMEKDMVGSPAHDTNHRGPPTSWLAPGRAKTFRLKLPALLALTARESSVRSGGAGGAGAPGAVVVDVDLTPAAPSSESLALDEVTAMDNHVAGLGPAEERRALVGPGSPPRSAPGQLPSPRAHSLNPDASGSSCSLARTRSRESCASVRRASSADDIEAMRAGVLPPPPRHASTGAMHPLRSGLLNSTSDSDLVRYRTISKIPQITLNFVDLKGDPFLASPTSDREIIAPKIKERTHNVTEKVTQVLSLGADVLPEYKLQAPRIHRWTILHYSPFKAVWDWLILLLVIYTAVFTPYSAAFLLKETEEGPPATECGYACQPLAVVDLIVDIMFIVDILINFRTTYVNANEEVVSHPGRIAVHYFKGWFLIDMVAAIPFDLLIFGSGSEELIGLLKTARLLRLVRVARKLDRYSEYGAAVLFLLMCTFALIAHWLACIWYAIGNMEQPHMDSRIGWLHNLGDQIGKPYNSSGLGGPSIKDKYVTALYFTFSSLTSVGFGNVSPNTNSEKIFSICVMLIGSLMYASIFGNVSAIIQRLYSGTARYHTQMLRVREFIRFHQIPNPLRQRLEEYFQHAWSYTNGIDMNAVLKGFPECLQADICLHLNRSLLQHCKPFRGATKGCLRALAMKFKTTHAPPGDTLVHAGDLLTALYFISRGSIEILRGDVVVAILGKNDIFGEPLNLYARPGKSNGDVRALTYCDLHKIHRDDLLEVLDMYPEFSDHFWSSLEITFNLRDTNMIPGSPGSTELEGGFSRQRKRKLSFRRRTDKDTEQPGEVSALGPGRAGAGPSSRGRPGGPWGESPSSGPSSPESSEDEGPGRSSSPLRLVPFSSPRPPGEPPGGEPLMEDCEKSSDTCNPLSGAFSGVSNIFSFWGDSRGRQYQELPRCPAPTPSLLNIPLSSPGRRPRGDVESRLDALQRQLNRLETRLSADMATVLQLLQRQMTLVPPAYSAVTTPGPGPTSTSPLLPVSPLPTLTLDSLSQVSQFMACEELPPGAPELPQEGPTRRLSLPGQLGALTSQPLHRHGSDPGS

Cytochrome P450 3A4 = Cytochrome P450 3A4 (Homo sapiens, UniProt P08684); assay: Inhibition of CYP3A4 in human liver microsomes using midazolam as substrate measured after 5 mins by LC-MS/MS analysis; format: ADME, Microsome
Cytochrome P450 3A4, sequence (P08684 whole entry): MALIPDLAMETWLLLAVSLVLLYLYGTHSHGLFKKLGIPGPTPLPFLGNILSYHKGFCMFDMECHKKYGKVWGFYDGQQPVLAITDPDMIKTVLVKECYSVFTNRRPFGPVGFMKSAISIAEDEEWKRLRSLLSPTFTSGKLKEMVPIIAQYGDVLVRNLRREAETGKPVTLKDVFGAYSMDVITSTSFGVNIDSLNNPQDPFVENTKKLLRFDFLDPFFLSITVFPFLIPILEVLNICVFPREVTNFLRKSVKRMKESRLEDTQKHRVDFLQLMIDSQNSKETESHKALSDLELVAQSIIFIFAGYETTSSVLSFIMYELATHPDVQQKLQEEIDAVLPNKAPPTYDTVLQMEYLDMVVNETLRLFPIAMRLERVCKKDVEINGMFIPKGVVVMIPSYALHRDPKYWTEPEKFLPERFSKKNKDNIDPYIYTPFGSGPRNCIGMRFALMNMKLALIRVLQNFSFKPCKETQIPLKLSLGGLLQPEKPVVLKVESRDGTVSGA

[11] = AUC(0 to infinity) in C57BL/6 mouse at 10 mg/kg, po or 2 mg/kg, iv measured upto 24 hrs by LC-MS/MS analysis; format: ADME, organism-based; set-up: time < 24 hrs, dose 10 mg/kg, route po; details: in vivo
[12] = Cmax in Sprague-Dawley rat at 10 mg/kg, po or 2 mg/kg, iv measured upto 24 hrs by LC-MS/MS analysis; format: ADME, organism-based; set-up: dose 10 mg/kg, time < 24 hrs, route po; details: in vivo
[13] = Solubility of compound at pH 7 by HPLC analysis; format: physicochemical; details: buffer
[14] = Metabolic stability in rat liver microsome assessed as intrinsic clearance pretreated for 5 mins followed by NADPH addition and measured upto 60 mins by HPLC-MS/MS analysis; format: ADME; details: liver microsomes, time < 65 min, read-out: CLH
[15] = Volume of distribution at steady state in Sprague-Dawley rat at 10 mg/kg, po or 2 mg/kg, iv measured upto 24 hrs by LC-MS/MS analysis; format: ADME, organism-based; details: in vivo
THP-1 = assay: Antiproliferative activity against human THP-1 cells assessed as reduction in cell viability measured after 72 hrs; format: functional, cell-based; details: THP-1, 72 h
[16] = Tmax in C57BL/6 mouse at 10 mg/kg, po or 2 mg/kg, iv measured upto 24 hrs by LC-MS/MS analysis; format: ADME, organism-based; details: in vivo
Cytochrome P450 1A2 = target: T2, Cytochrome P450 1A2 (Homo sapiens, UniProt P05177); assay: Inhibition of CYP1A2 in human liver microsomes incubated for 10 mins by LC-MS/MS analysis; format: ADME, Microsome
T2 sequence (P05177 whole entry): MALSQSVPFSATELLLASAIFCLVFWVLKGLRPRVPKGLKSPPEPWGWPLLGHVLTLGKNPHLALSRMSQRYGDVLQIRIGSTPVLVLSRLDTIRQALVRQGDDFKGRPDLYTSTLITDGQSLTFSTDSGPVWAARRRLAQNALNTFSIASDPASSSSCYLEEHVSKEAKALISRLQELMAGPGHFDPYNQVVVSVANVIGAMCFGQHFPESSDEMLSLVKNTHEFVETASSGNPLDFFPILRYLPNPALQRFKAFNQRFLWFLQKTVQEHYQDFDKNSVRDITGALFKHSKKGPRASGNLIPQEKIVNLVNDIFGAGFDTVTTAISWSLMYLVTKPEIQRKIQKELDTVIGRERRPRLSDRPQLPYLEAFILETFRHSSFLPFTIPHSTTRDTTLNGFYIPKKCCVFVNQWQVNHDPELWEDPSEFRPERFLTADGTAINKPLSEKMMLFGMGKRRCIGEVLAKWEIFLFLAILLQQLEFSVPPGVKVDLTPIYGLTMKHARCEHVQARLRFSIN

Cytochrome P450 2D6 = Cytochrome P450 2D6 (Homo sapiens, UniProt P10635); assay: Inhibition of CYP2D6 in human liver microsomes incubated for 10 mins by LC-MS/MS analysis; format: ADME, Microsome
Cytochrome P450 2D6, sequence (P10635 whole entry): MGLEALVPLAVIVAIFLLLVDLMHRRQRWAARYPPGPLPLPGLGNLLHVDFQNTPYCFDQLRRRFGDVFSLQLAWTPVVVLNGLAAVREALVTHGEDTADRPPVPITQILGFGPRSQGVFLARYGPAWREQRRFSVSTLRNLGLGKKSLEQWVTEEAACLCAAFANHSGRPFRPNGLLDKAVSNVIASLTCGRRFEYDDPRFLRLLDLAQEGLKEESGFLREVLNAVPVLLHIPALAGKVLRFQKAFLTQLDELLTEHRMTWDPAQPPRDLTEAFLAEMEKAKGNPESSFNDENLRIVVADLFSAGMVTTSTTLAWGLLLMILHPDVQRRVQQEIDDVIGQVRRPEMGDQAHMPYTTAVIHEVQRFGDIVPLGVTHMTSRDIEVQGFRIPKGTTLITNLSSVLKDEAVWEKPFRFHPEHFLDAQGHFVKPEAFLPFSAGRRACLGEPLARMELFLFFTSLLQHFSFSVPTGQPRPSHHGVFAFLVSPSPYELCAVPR

[17] = Intrinsic clearance in rat hepatocytes measured per 10^6 cells; format: ADME, cell-based, Hepatocyte
[18] = target: Dihydroorotate dehydrogenase (quinone), mitochondrial (Mus musculus, UniProt O35435); assay: Inhibition of mouse DHODH
Dihydroorotate dehydrogenase (quinone), mitochondrial (Mus musculus, UniProt O35435), sequence (O35435 whole entry): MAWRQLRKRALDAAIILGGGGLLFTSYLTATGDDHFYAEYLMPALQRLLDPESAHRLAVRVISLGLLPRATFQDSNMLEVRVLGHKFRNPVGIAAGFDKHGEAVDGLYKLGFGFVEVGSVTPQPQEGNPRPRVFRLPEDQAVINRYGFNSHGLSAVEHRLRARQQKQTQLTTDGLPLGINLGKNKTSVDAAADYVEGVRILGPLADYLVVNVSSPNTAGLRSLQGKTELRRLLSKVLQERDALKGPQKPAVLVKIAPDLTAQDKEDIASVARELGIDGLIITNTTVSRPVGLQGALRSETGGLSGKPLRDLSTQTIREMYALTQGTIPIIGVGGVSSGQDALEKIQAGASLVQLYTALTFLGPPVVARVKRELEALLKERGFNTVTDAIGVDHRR

[19] = Volume of distribution at steady state in C57BL/6 mouse at 10 mg/kg, po or 2 mg/kg, iv measured upto 24 hrs by LC-MS/MS analysis; format: ADME, organism-based; details: in vivo
[20] = Metabolic stability in mouse liver microsome assessed as intrinsic clearance pretreated for 5 mins followed by NADPH addition and measured upto 60 mins by HPLC-MS/MS analysis; format: ADME; details: liver microsomes, time < 65 min, read-out: CLH
[21] = Half life in Sprague-Dawley rat at 10 mg/kg, po or 2 mg/kg, iv measured upto 24 hrs by LC-MS/MS analysis; format: ADME, organism-based; details: in vivo
[22] = Intrinsic clearance in mouse hepatocytes measured per 10^6 cells; format: ADME, cell-based, Hepatocyte
[23] = Cmax in C57BL/6 mouse at 10 mg/kg, po or 2 mg/kg, iv measured upto 24 hrs by LC-MS/MS analysis; format: ADME, organism-based; set-up: time < 24 hrs, dose 10 mg/kg, route po; details: in vivo
[24] = target: Dihydroorotate dehydrogenase (quinone), mitochondrial (Homo sapiens, UniProt Q02127); assay: Inhibition of His fused human DHODH expressed in Escherichia coli using DHO as substrate by DCIP absorbance based colorimetry assay
Dihydroorotate dehydrogenase (quinone), mitochondrial (Homo sapiens, UniProt Q02127), sequence (Q02127 whole entry, the tested form may be a part): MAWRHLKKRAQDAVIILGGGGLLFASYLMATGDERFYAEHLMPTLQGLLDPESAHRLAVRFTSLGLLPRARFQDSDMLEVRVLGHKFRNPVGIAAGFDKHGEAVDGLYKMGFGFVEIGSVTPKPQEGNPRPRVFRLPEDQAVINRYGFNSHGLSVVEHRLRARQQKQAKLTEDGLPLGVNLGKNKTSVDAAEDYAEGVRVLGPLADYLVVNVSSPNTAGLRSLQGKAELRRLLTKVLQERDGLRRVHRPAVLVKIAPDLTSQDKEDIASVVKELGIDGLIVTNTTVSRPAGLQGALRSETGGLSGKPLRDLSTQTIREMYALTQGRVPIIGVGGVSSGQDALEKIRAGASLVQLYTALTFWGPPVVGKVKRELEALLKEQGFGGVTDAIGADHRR

For `CCn1c(CO)nn(-c2nc(O[C@@H](C)C(F)(F)F)c(C(=O)Nc3c(C)cnc(OC)c3Cl)cc2F)c1=O`, which IC50 [1] is on record?
The IC50 was 4.2 nM.

What about the AUC(0-inf) [2] of the same molecule?
Its AUC(0-inf) is 23800 ng·h/mL.

And the logD [3]?
Its logD is 2.4.

What about the fraction unbound at 1 µM [4] of the same molecule?
Its fraction unbound at 1 µM is 0.062.

What about the IC50 (Cytochrome P450 2C8) of the same molecule?
The IC50 was > 10000 nM.

What about the fraction unbound at 1 µM [5] of the same molecule?
Its fraction unbound at 1 µM is 0.042.

And the IC50 [6]?
The IC50 was 0.54 nM.

What about the CLint scaled [7] of the same molecule?
Its CLint scaled is 5.3 mL/min/kg.

And the IC50 (Cytochrome P450 2C9)?
Its IC50 is > 10000 nM.

What about the half-life [8] of the same molecule?
The half-life was 5 h.

And the bioavailability [9]?
The bioavailability was 110%.

What about the IC50 [10] of the same molecule?
The IC50 was > 10000 nM.

And the IC50 (Cytochrome P450 3A4)?
Its IC50 is > 10000 nM.

What about the AUC(0-inf) [11] of the same molecule?
Its AUC(0-inf) is 25000 ng·h/mL.

And the Cmax [12]?
Its Cmax is 2190 ng/mL.

And the solubility [13]?
Its solubility is 5 µM (≈ 2.74 µg/mL).

And the CLint scaled [14]?
The CLint scaled was 6.2 mL/min/kg.

What about the Vdss [15] of the same molecule?
The Vdss was 2.2 L/kg.

And the IC50 (THP-1)?
Its IC50 is 1.4 nM.

And the Tmax [16]?
Its Tmax is 1 h.

What about the IC50 (Cytochrome P450 1A2) of the same molecule?
Its IC50 is > 10000 nM.

What about the IC50 (Cytochrome P450 2D6) of the same molecule?
The IC50 was > 10000 nM.

What about the CLH [17] of the same molecule?
Its CLH is 6.2 µL/min/1e6 cells.

What about the IC50 [18] of the same molecule?
The IC50 was 10 nM.

And the Vdss [19]?
The Vdss was 2.4 L/kg.

What about the CLint scaled [20] of the same molecule?
The CLint scaled was 5.5 mL/min/kg.

And the half-life [21]?
Its half-life is 4 h.

And the CLH [22]?
Its CLH is 5.5 µL/min/1e6 cells.

What about the Cmax [23] of the same molecule?
The Cmax was 3810 ng/mL.

And the IC50 [24]?
The IC50 was 0.3 nM.

Which IC50 [1] does the source give for `CCn1c(CO)nn(-c2nc(O[C@@H](C)C(F)(F)F)c(C(=O)Nc3c(C)ccnc3Cl)cc2F)c1=O` here?
The IC50 was 8.5 nM.

And the AUC(0-inf) [2]?
Its AUC(0-inf) is 9210 ng·h/mL.

What about the logD [3] of the same molecule?
Its logD is 2.7.

What about the fraction unbound at 1 µM [4] of the same molecule?
Its fraction unbound at 1 µM is 0.23.

And the IC50 (Cytochrome P450 2C8)?
Its IC50 is > 10000 nM.

And the fraction unbound at 1 µM [5]?
Its fraction unbound at 1 µM is 0.33.

And the IC50 [6]?
The IC50 was 1.6 nM.

And the CLint scaled [7]?
Its CLint scaled is 4 mL/min/kg.

And the IC50 (Cytochrome P450 2C9)?
The IC50 was > 10000 nM.

And the half-life [8]?
Its half-life is 2.3 h.

What about the bioavailability [9] of the same molecule?
Its bioavailability is 103%.

And the IC50 [10]?
Its IC50 is > 10000 nM.

And the IC50 (Cytochrome P450 3A4)?
The IC50 was > 10000 nM.

What about the AUC(0-inf) [11] of the same molecule?
Its AUC(0-inf) is 16100 ng·h/mL.

What about the Cmax [12] of the same molecule?
The Cmax was 1710 ng/mL.

And the solubility [13]?
The solubility was > 400 µM.

And the CLint scaled [14]?
Its CLint scaled is 5.2 mL/min/kg.

What about the Vdss [15] of the same molecule?
Its Vdss is 2.3 L/kg.

What about the IC50 (THP-1) of the same molecule?
The IC50 was 5 nM.

What about the Tmax [16] of the same molecule?
Its Tmax is 0.42 h.

What about the IC50 (Cytochrome P450 1A2) of the same molecule?
Its IC50 is > 10000 nM.

And the IC50 (Cytochrome P450 2D6)?
Its IC50 is > 10000 nM.

What about the CLH [17] of the same molecule?
The CLH was 5.2 µL/min/1e6 cells.

What about the IC50 [18] of the same molecule?
The IC50 was 140 nM.

And the Vdss [19]?
Its Vdss is 1.3 L/kg.

And the CLint scaled [20]?
Its CLint scaled is 5.7 mL/min/kg.

What about the half-life [21] of the same molecule?
Its half-life is 2 h.

What about the CLH [22] of the same molecule?
The CLH was 5.7 µL/min/1e6 cells.

And the Cmax [23]?
Its Cmax is 4050 ng/mL.

And the IC50 [24]?
The IC50 was 1.1 nM.
